According to the NIST ThermoML archive (doi:10.1007/s10765-011-0948-4):
Where “and” joins values, the source holds several entries; their conditions need not be identical. Equal values may be shown once. ± gives the expanded uncertainty stated by the source.

What was measured:
[1] = for thermal pressure coefficient: barogram technique
[2] = molar heat capacity at constant volume; conditions: High-temperature High-pressure adiabatci calorimeter

CCOCC [diethyl ether]
vapor or sublimation pressure ([1]; 416.1 K, Liquid): 1599 ± 48 kPa
mass density ([1]; 416.1 K, Liquid, Constant volume piezo-calorimeter): 534.6 ± 0.3 kg/m3
thermal pressure coefficient ([1]; 416.1 K, Liquid): 272 ± 4.1 kPa/K
vapor or sublimation pressure ([1]; 425.19 K, Liquid): 1906 ± 57 kPa
mass density ([1]; 425.19 K, Liquid, Constant volume piezo-calorimeter): 517.3 ± 0.3 kg/m3
thermal pressure coefficient ([1]; 425.19 K, Liquid): 238 ± 3.6 kPa/K
vapor or sublimation pressure ([1]; 437.14 K, Liquid): 2280 ± 68 kPa
mass density ([1]; 437.14 K, Liquid, Constant volume piezo-calorimeter): 485.2 ± 0.3 kg/m3
thermal pressure coefficient ([1]; 437.14 K, Liquid): 198 ± 3 kPa/K
vapor or sublimation pressure ([1]; 450.6 K, Liquid): 2931 ± 88 kPa
mass density ([1]; 450.6 K, Liquid, Constant volume piezo-calorimeter): 441.5 ± 0.2 kg/m3
thermal pressure coefficient ([1]; 450.6 K, Liquid): 148 ± 2.2 kPa/K
vapor or sublimation pressure ([1]; 450.77 K, Liquid): 2933 ± 88 kPa
mass density ([1]; 450.77 K, Liquid, Constant volume piezo-calorimeter): 440.8 ± 0.2 kg/m3
thermal pressure coefficient ([1]; 450.77 K, Liquid): 148 ± 2.2 kPa/K
vapor or sublimation pressure ([1]; 459.61 K, Liquid): 3315 ± 99 kPa
mass density ([1]; 459.61 K, Liquid, Constant volume piezo-calorimeter): 394.8 ± 0.2 kg/m3
thermal pressure coefficient ([1]; 459.61 K, Liquid): 106 ± 1.6 kPa/K
vapor or sublimation pressure ([1]; 464.79 K, Liquid): 3580 ± 110 kPa
mass density ([1]; 464.79 K, Liquid, Constant volume piezo-calorimeter): 348.2 ± 0.3 kg/m3
thermal pressure coefficient ([1]; 464.79 K, Liquid): 81.8 ± 1.2 kPa/K
thermal pressure coefficient ([1]; 466.12 K, Gas): 52.3 ± 0.8 kPa/K
mass density ([1]; 466.12 K, Gas, constant volume piezo-calorimeter): 212.6 ± 0.6 kg/m3
vapor or sublimation pressure ([1]; 466.47 K, Liquid): 3612 ± 110 kPa
mass density ([1]; 466.47 K, Liquid, Constant volume piezo-calorimeter): 310.8 ± 0.8 kg/m3
thermal pressure coefficient ([1]; 466.47 K, Liquid): 68 ± 1 kPa/K
thermal pressure coefficient ([1]; 466.66 K, Gas): 54.3 ± 0.8 kPa/K
mass density ([1]; 466.66 K, Gas, constant volume piezo-calorimeter): 233.7 ± 0.8 kg/m3
vapor or sublimation pressure ([1]; 466.75 K, Liquid): 3601 ± 110 kPa
mass density ([1]; 466.75 K, Liquid, Constant volume piezo-calorimeter): 296.7 ± 0.8 kg/m3
thermal pressure coefficient ([1]; 466.75 K, Liquid): 64.5 ± 1 kPa/K
vapor or sublimation pressure ([1]; 466.8 K, Liquid): 3583 ± 110 kPa
mass density ([1]; 466.8 K, Liquid, Constant volume piezo-calorimeter): 288.3 ± 1.1 kg/m3
thermal pressure coefficient ([1]; 466.8 K, Liquid): 61 ± 1 kPa/K
vapor or sublimation pressure ([1]; 466.81 K, Liquid): 3608 ± 110 kPa and 3576 ± 110 kPa
mass density ([1]; 466.81 K, Liquid, Constant volume piezo-calorimeter): 278.7 ± 1.5 kg/m3 and 275.7 ± 1.6 kg/m3
thermal pressure coefficient ([1]; 466.81 K, Liquid): 59.7 kPa/K and 59.2 kPa/K
thermal pressure coefficient ([1]; 466.82 K, Gas): 55.9 ± 0.9 kPa/K
mass density ([1]; 466.82 K, Gas, constant volume piezo-calorimeter): 255 ± 1.9 kg/m3
thermal pressure coefficient ([1]; 466.83 K, Gas): 56.1 ± 0.9 kPa/K
mass density ([1]; 466.83 K, Gas, constant volume piezo-calorimeter): 260.7 ± 2.3 kg/m3
thermal pressure coefficient ([1]; 466.85 K, Gas): 55.9 ± 0.9 kPa/K
mass density ([1]; 466.85 K, Gas, constant volume piezo-calorimeter): 261.2 ± 2.2 kg/m3
Critical density ([1]; Liquid, quasi-satatic thermogram technique): 265.1 ± 2 kg/m3
Critical temperature ([1]; Liquid, quasi-static thermogram technique): 466.85 ± 0.2 K
molar heat capacity at constant volume ([2]; 416.1 K, Liquid): 156.77 ± 4.7 J/K/mol
molar heat capacity at constant volume ([2]; 425.19 K, Liquid): 159.36 ± 4.8 J/K/mol
molar heat capacity at constant volume ([2]; 437.14 K, Liquid): 163.81 ± 4.9 J/K/mol
molar heat capacity at constant volume ([2]; 450.6 K, Liquid): 170.26 ± 5.1 J/K/mol
molar heat capacity at constant volume ([2]; 450.77 K, Liquid): 171.96 ± 5.2 J/K/mol
molar heat capacity at constant volume ([2]; 459.61 K, Liquid): 178.63 ± 5.3 J/K/mol
molar heat capacity at constant volume ([2]; 464.79 K, Liquid): 190.49 ± 5.7 J/K/mol
molar heat capacity at constant volume ([2]; 466.12 K, Gas): 190.12 ± 5.7 J/K/mol
molar heat capacity at constant volume ([2]; 466.47 K, Liquid): 203.83 ± 6.2 J/K/mol
molar heat capacity at constant volume ([2]; 466.66 K, Gas): 208.5 ± 6.3 J/K/mol
molar heat capacity at constant volume ([2]; 466.75 K, Liquid): 210.65 ± 6.3 J/K/mol
molar heat capacity at constant volume ([2]; 466.8 K, Liquid): 218.66 ± 6.6 J/K/mol
molar heat capacity at constant volume ([2]; 466.81 K, Liquid): 233.48 ± 7.1 J/K/mol and 245.64 ± 7.6 J/K/mol
molar heat capacity at constant volume ([2]; 466.82 K, Gas): 234.97 ± 7.4 J/K/mol
molar heat capacity at constant volume ([2]; 466.83 K, Gas): 248.6 ± 8.2 J/K/mol
molar heat capacity at constant volume ([2]; 466.85 K, Gas): 264.24 ± 9.1 J/K/mol
